Source: patent publication US9580444B2, “Polycyclic pyrazolinone derivative and herbicide comprising same as effective component thereof” (priority 2013, dated 2017)

How the values were obtained:
Experiment in all cases: Test Example-1: herbicidal effect by a treatment before weeds are generated under submerged conditions
Assay type in all cases: in vivo
Settings in all cases: 500 g a.i/ha, pre-emergence treatment, about 15 days after treatment, score 0-5
[1] = system: Cyperus difformis (smallflower umbrella plant)
Method: (§1) Using the formulation prepared according to the methods described above, the herbicidal effect of the bicyclic pyrazolinone derivative of the invention according to the methods shown in Test Examples below was examined. The herbicidal effect with respect to the test weeds or the phytotoxicity with respect to the test crops was examined according to the following criteria, and evaluated in six stage scores of 0 to 5.
(§2) A plastic cup of 30 cm^2 was filled with paddy soil, soil puddling was performed, seeds of Echinochloa oryzicola (barnyard grass), Cyperus difformis (smallflower umbrella plant), Monochoria vaginalis (monochoria), Scirpus juncoides (bulrush), and Eleocharis acicularis (needle spikerush), and Lindernia procumbens (common false pimpernel), Rotala indica (indian toothcup), Elatine triandra (waterwort) as other annual broad leaf weeds were seeded therein, and kept in a submerged state. A wettable powder or an emulsifiable concentrate of the compound of the present invention prepared according to Formulation Example was diluted on the weed seeding day, and a submersing treatment was performed so as to be a predetermined dosage. The herbicidal effect with respect to the test weeds about 15 days after the treatment was evaluated according to the evaluation criteria in six stages of 0 to 5 described above.

[2] = system: Echinochloa oryzicola (barnyard grass)
Method: as §1, §2

[3] = system: Eleocharis acicularis (needle spikerush)
Method: as §1, §2

[4] = system: Monochoria vaginalis (monochoria)
Method: as §1, §2

[5] = system: Scirpus juncoides (bulrush)
Method: as §1, §2

[6] = system: other annual broad leaf weeds (Lindernia procumbens, Rotala indica, Elatine triandra)
Method: as §1, §2

Compound	Herbicidal effect Cyperus difformis [1]	Herbicidal effect Echinochloa oryzicola [2]	Herbicidal effect Eleocharis acicularis [3]	Herbicidal effect Monochoria vaginalis [4]	Herbicidal effect Scirpus juncoides [5]	Herbicidal effect Broadleaf weed [6]
O=c1c(-c2ccc(F)cc2F)c(Cl)n2n1CCCC2 [Example 1-75]	5 (Herbicidal effect/phytotoxicity was 90% or greater)	5 (Herbicidal effect/phytotoxicity was 90% or greater)	5 (Herbicidal effect/phytotoxicity was 90% or greater)	5 (Herbicidal effect/phytotoxicity was 90% or greater)	5 (Herbicidal effect/phytotoxicity was 90% or greater)	5 (Herbicidal effect/phytotoxicity was 90% or greater)
C#CCN(C)c1cc(-c2c(Cl)n3n(c2=O)CCCC3)c(F)cc1Cl [Example 5-68]	5 (Herbicidal effect/phytotoxicity was 90% or greater)	5 (Herbicidal effect/phytotoxicity was 90% or greater)	5 (Herbicidal effect/phytotoxicity was 90% or greater)	5 (Herbicidal effect/phytotoxicity was 90% or greater)	5 (Herbicidal effect/phytotoxicity was 90% or greater)	5 (Herbicidal effect/phytotoxicity was 90% or greater)
COc1cccc(Oc2cc(-c3c(Cl)n4n(c3=O)CCCC4)c(F)cc2Cl)c1 [Compound 3-5]	5 (Herbicidal effect/phytotoxicity was 90% or greater)	5 (Herbicidal effect/phytotoxicity was 90% or greater)	5 (Herbicidal effect/phytotoxicity was 90% or greater)	5 (Herbicidal effect/phytotoxicity was 90% or greater)	5 (Herbicidal effect/phytotoxicity was 90% or greater)	5 (Herbicidal effect/phytotoxicity was 90% or greater)
CCOC(=O)C=C(COc1cc(-c2c(Cl)n3n(c2=O)CCCC3)c(F)cc1Cl)OCC (mixture of isomers) [Compound 2-19]	5 (Herbicidal effect/phytotoxicity was 90% or greater)	5 (Herbicidal effect/phytotoxicity was 90% or greater)	5 (Herbicidal effect/phytotoxicity was 90% or greater)	5 (Herbicidal effect/phytotoxicity was 90% or greater)	5 (Herbicidal effect/phytotoxicity was 90% or greater)	5 (Herbicidal effect/phytotoxicity was 90% or greater)
CC(C)CCOc1cc(-c2c(Cl)n3n(c2=O)CCCC3)c(F)cc1F [Example 1-93]	5 (Herbicidal effect/phytotoxicity was 90% or greater)	5 (Herbicidal effect/phytotoxicity was 90% or greater)	5 (Herbicidal effect/phytotoxicity was 90% or greater)	5 (Herbicidal effect/phytotoxicity was 90% or greater)	5 (Herbicidal effect/phytotoxicity was 90% or greater)	5 (Herbicidal effect/phytotoxicity was 90% or greater)
O=c1c(-c2cc(OC3C=CCCC3)c(Cl)cc2F)c(Cl)n2n1CCCC2 (stereo not drawn) [Example 1-232]	5 (Herbicidal effect/phytotoxicity was 90% or greater)	5 (Herbicidal effect/phytotoxicity was 90% or greater)	5 (Herbicidal effect/phytotoxicity was 90% or greater)	5 (Herbicidal effect/phytotoxicity was 90% or greater)	5 (Herbicidal effect/phytotoxicity was 90% or greater)	5 (Herbicidal effect/phytotoxicity was 90% or greater)
CC(C)Oc1ccc(Oc2cc(-c3c(Cl)n4n(c3=O)CCCC4)c(F)cc2Cl)cc1 [Compound 3-13]	5 (Herbicidal effect/phytotoxicity was 90% or greater)	5 (Herbicidal effect/phytotoxicity was 90% or greater)	5 (Herbicidal effect/phytotoxicity was 90% or greater)	5 (Herbicidal effect/phytotoxicity was 90% or greater)	5 (Herbicidal effect/phytotoxicity was 90% or greater)	5 (Herbicidal effect/phytotoxicity was 90% or greater)
C=C(COc1ccccc1Oc1cc(-c2c(Cl)n3n(c2=O)CCCC3)c(F)cc1Cl)c1cccc(Cl)c1 [Compound 3-26]	5 (Herbicidal effect/phytotoxicity was 90% or greater)	5 (Herbicidal effect/phytotoxicity was 90% or greater)	5 (Herbicidal effect/phytotoxicity was 90% or greater)	5 (Herbicidal effect/phytotoxicity was 90% or greater)	5 (Herbicidal effect/phytotoxicity was 90% or greater)	5 (Herbicidal effect/phytotoxicity was 90% or greater)
C=CCOc1cc(F)ccc1Oc1cc(-c2c(Cl)n3n(c2=O)CCCC3)c(F)cc1Cl [Compound 3-34]	5 (Herbicidal effect/phytotoxicity was 90% or greater)	5 (Herbicidal effect/phytotoxicity was 90% or greater)	5 (Herbicidal effect/phytotoxicity was 90% or greater)	5 (Herbicidal effect/phytotoxicity was 90% or greater)	5 (Herbicidal effect/phytotoxicity was 90% or greater)	5 (Herbicidal effect/phytotoxicity was 90% or greater)
C=C(C)COC(=O)C=C(COc1cc(-c2c(Cl)n3n(c2=O)CCCC3)c(F)cc1Cl)OCCC [Compound 2-33]	5 (Herbicidal effect/phytotoxicity was 90% or greater)	5 (Herbicidal effect/phytotoxicity was 90% or greater)	5 (Herbicidal effect/phytotoxicity was 90% or greater)	5 (Herbicidal effect/phytotoxicity was 90% or greater)	5 (Herbicidal effect/phytotoxicity was 90% or greater)	5 (Herbicidal effect/phytotoxicity was 90% or greater)
COC(=O)C=C(COc1cc(-c2c(Cl)n3n(c2=O)CCCC3)c(Cl)cc1Cl)OC (mixture of isomers) [Compound 2-5]	5 (Herbicidal effect/phytotoxicity was 90% or greater)	5 (Herbicidal effect/phytotoxicity was 90% or greater)	5 (Herbicidal effect/phytotoxicity was 90% or greater)	5 (Herbicidal effect/phytotoxicity was 90% or greater)	5 (Herbicidal effect/phytotoxicity was 90% or greater)	5 (Herbicidal effect/phytotoxicity was 90% or greater)
C=CCOc1cc(Cl)ccc1Oc1cc(-c2c(Cl)n3n(c2=O)CCCC3)c(F)cc1Cl [Compound 3-38]	5 (Herbicidal effect/phytotoxicity was 90% or greater)	5 (Herbicidal effect/phytotoxicity was 90% or greater)	5 (Herbicidal effect/phytotoxicity was 90% or greater)	5 (Herbicidal effect/phytotoxicity was 90% or greater)	5 (Herbicidal effect/phytotoxicity was 90% or greater)	5 (Herbicidal effect/phytotoxicity was 90% or greater)
COC(=O)C(C)Oc1cc(-c2c(Cl)n3n(c2=O)CCCC3)c(F)cc1Cl (stereo not drawn) [Example 1-166]	5 (Herbicidal effect/phytotoxicity was 90% or greater)	5 (Herbicidal effect/phytotoxicity was 90% or greater)	5 (Herbicidal effect/phytotoxicity was 90% or greater)	5 (Herbicidal effect/phytotoxicity was 90% or greater)	5 (Herbicidal effect/phytotoxicity was 90% or greater)	5 (Herbicidal effect/phytotoxicity was 90% or greater)
